Assay results taken from US9655991B2, “Stable hydrogel compositions including additives” (Allergan Industries, S.A.S., priority 2010, dated 2017).

Assay: Oxidative degradation of gel by free radicals (H2O2) on rheometer
Conditions: gel with AA2G and lidocaine vs gel with lidocaine
Source text: The effect of ascorbic acid 2-glucoside (AA2G™) on HA-based gel matrix oxidative degradation was studied. Oxidation testing was used as it allows testing of the resistance of a HA-based gel matrix to free radicals. Degradation by free radicals was simulated on a rheometer (Haake Rheostress 600) by addition of 1/7 ratio of H2O2 30% on the surface of a spread gel measured with a controlled stress rheometer according to the following method: frequency of 1 Hz with 0.8% controlled strain, during 3600 s at 35° C. The time value is taken at 5 Pa/s.

Protection against oxidative degradation (factor): 3
SMILES: O=C1O[C@H]([C@@H](O)CO)C(O)=C1O[C@H]1O[C@H](CO)[C@@H](O)[C@H](O)[C@H]1O [Ascorbic acid 2-glucoside (AA2G™), Ascorbic acid 2-glucoside]
